The source of these data is ChEMBL document CHEMBL1156832, “Cationic N-confused porphyrin derivative as a better molecule scaffold for G-quadruplex recognition” (Bioorg Med Chem, 2010).

Test [1] concerns Nucleic Acid. Kind of test: Induction of structural transition from antiparallel to the mixed-type hybrid G-quadruplex structure in human telomeric sequence (T2AG3)4 by CD spectroscopy. Format: nucleic-acid assay.
The subject of test [2] is Nucleic Acid. Kind of test: Induction of G-quadruplex stabilization in G4C oligonucleotide assessed as change in DNA melting temperature at [compound/G4C ratio = 1] in pH 7.4 10 mM Tris-HCl, 1 mM EDTA buffer by CD spectroscopy. The class given is nucleic-acid assay.
The subject of test [3] is Nucleic Acid. Kind of test: Induction of G-quadruplex stabilization in G4C oligonucleotide assessed as change in DNA melting temperature at [compound/G4C ratio = 2] in pH 7.4 10 mM Tris-HCl, 1 mM EDTA buffer by CD spectroscopy. Format: nucleic-acid assay.
In test [4] the test system is Nucleic Acid. Kind of test: Induction of G-quadruplex stabilization in G4C oligonucleotide assessed as change in DNA melting temperature at [compound/G4C ratio = 3] in pH 7.4 10 mM Tris-HCl, 1 mM EDTA buffer by CD spectroscopy. Format: nucleic-acid assay.
The subject of test [5] is Nucleic Acid. Kind of test: Induction of G-quadruplex stabilization in G4C oligonucleotide assessed as change in DNA melting temperature at [compound/G4C ratio = 4] in pH 7.4 10 mM Tris-HCl, 1 mM EDTA buffer by CD spectroscopy. Format: nucleic-acid assay.
In test [6] the test system is Nucleic Acid. Kind of test: Induction of G-quadruplex stabilization in G4C oligonucleotide assessed as change in DNA melting temperature at [compound/G4C ratio = 5] in pH 7.4 10 mM Tris-HCl, 1 mM EDTA buffer by CD spectroscopy. Format: nucleic-acid assay.
The test system of test [7] is Nucleic Acid. Kind of test: Binding affinity to human bcl2 promoter G-quadruplex sequence by surface plasmon resonance spectroscopy. The class given is nucleic-acid assay. A general note: SPR reads the build-up and loss of mass on a sensor chip optically.
Test [8] relates to Nucleic Acid. Kind of test: Binding affinity to human c-myc promoter G-quadruplex sequence by surface plasmon resonance spectroscopy. Format: nucleic-acid assay.
In test [9] the test system is Nucleic Acid. Kind of test: Binding affinity to human telomeric G-quadruplex sequence by surface plasmon resonance spectroscopy. Format: nucleic-acid assay.
The subject of test [10] is Nucleic Acid. Kind of test: Binding affinity to dsDNA by surface plasmon resonance spectroscopy. Format: nucleic-acid assay.
The subject of test [11] is Nucleic Acid. Kind of test: Selectivity for human bcl2 promoter G-quadruplex sequence over double stranded DNA by surface plasmon resonance spectroscopy. The class given is nucleic-acid assay.
Test [12] deals with Nucleic Acid. Kind of test: Binding affinity to F21T G-quadruplex DNA at 2.5 uM in presence of competitor dsDNA by competitive FRET melting assay. The class given is nucleic-acid assay.
For test [13], the system named is Nucleic Acid. Kind of test: Selectivity for human c-myc promoter G-quadruplex sequence over double stranded DNA by surface plasmon resonance spectroscopy. The class given is nucleic-acid assay.
Test [14] deals with Nucleic Acid. Kind of test: Selectivity for human telomeric G-quadruplex sequence over double stranded DNA by surface plasmon resonance spectroscopy. Format: nucleic-acid assay.
Test [15] has as its system Nucleic Acid. Kind of test: Induction of G-quadruplex stabilization in HT4 oligonucleotide assessed as inhibition of DNA synthesis by Taq DNA polymerase stop assay.
Test [16] deals with Nucleic Acid. Kind of test: Induction of G-quadruplex stabilization in G4C oligonucleotide in pH 7.4 10 mM Tris-HCl, 1 mM EDTA buffer by CD spectroscopy. The class given is nucleic-acid assay.

As a reminder, the ΔTm is the change in melting temperature against a reference sample.

Active and inactive are the calls of the source. The rule behind the calls is not given here.

As for `C1=C/C2=C(\c3ccc(C[n+]4ccccc4)cc3)c3c[nH]c(c3)/C(c3ccc(C[n+]4ccccc4)cc3)=C3/C=CC(=N3)/C(c3ccc(C[n+]4ccccc4)cc3)=c3/cc/c([nH]3)=C(\c3ccc(C[n+]4ccccc4)cc3)C1=N2`, the result in the test with Nucleic Acid [1] and with Nucleic Acid [12] was Active. The ΔTm in the test with Nucleic Acid [2] stood at 3.8 °C; with Nucleic Acid [3], 6.6 °C; in the test on Nucleic Acid [4], 8.3 °C; in the test with Nucleic Acid [5] it was 9.2 °C; in the test with Nucleic Acid [6] it was 9.3 °C. Besides, the KA with Nucleic Acid [7] was found to be 1.42 ×10⁷ /M; in the test with Nucleic Acid [8], 7.54 ×10⁶ /M; with Nucleic Acid [9], 5.32 ×10⁶ /M; with Nucleic Acid [10] it was 1.32 ×10⁵ /M. Moreover, the Selectivity ratio turned out to be 108 in the test with Nucleic Acid [11], 57 in the test on Nucleic Acid [13] and 40 in the test on Nucleic Acid [14]. Also, in the test on Nucleic Acid [15], the Activity entry was “Dose-dependent effect”.

On to `C1=Cc2nc1c(-c1ccc(C[n+]3ccccc3)cc1)c1nc(c(-c3ccc(C[n+]4ccccc4)cc3)c3ccc([nH]3)c(-c3ccc(C[n+]4ccccc4)cc3)c3ccc([nH]3)c2-c2ccc(C[n+]3ccccc3)cc2)C=C1`, for which, in the test with Nucleic Acid [16], the result was Active. For the same molecule, the ΔTm with Nucleic Acid [2] amounted to 2.2 °C; in the test with Nucleic Acid [3], 3.3 °C; in the test with Nucleic Acid [4] it was 5 °C; in the test on Nucleic Acid [5], 6.5 °C; with Nucleic Acid [6], 7.6 °C. Also, the KA worked out at 1.74 ×10⁷ /M in the test on Nucleic Acid [7], 5.82 ×10⁷ /M in the test on Nucleic Acid [8], 2.37 ×10⁷ /M in the test with Nucleic Acid [9] and 6.85 ×10⁵ /M in the test with Nucleic Acid [10]. The figures for the Selectivity ratio in the test with Nucleic Acid [11], in the test with Nucleic Acid [13] and in the test on Nucleic Acid [14] were 25, 85 and 34, respectively.

On to `C[n+]1ccc(-c2c3nc(c(-c4cc[n+](C)cc4)c4ccc([nH]4)c(-c4cc[n+](C)cc4)c4ccc([nH]4)c(-c4cc[n+](C)cc4)c4nc2C=C4)C=C3)cc1`, for which the ΔTm worked out at 4.2 °C in the test with Nucleic Acid [2]; 7.5 °C with Nucleic Acid [3]; 9.6 °C with Nucleic Acid [4]; 11.2 °C in the test with Nucleic Acid [5]; 10 °C with Nucleic Acid [6]. Further, the KA was determined as 3.09 ×10⁷ /M in the test with Nucleic Acid [7], 1.01 ×10⁸ /M in the test with Nucleic Acid [8], 4.65 ×10⁷ /M with Nucleic Acid [9] and 3.62 ×10⁶ /M in the test with Nucleic Acid [10]. The Selectivity ratio with Nucleic Acid [11] was 9; in the test on Nucleic Acid [13] it was 28; in the test with Nucleic Acid [14], 13.
